According to ChEMBL document CHEMBL4673312, “Optimization of piperidine constructed peptidyl derivatives as proteasome inhibitors” (Bioorg Med Chem, 2021):

Experiment: in vitro
Details: rat, plasma

Row | Structure (SMILES) | half-life at 2 µM [h]
1 | CC(C)(C)CNC(=O)C[C@H](NC(=O)N1CCC(NC(=O)c2ccc(F)cc2)CC1)C(=O)N[C@@H](CCc1ccccc1)C(=O)NCc1ccccc1Cl | 1.53
2 | CC(C)(C)CNC(=O)C[C@H](NC(=O)[C@H](CC(=O)NCC(C)(C)C)NC(=O)N1CCC(C(=O)Nc2cccnc2)CC1)C(=O)NCc1ccccc1Cl | 1.2
